From ChEMBL document CHEMBL3507680, “University of Dundee, Gates Library screen for HepG2 cell viability” come the findings set out here.

A short description of the series: Human HepG2 cell viability assay in 384 well format. It is filed as toxicity, cell-based. Also on record: dose 125 nL, time 70.5 hour; concentration not given beside the values. To be noted: HepG2 cells, read-out: Inhibition.

As for `COc1ccccc1CCN(C)C(C)c1nc(-c2cccnc2)no1` (centres undefined), the cytotoxicity at 70.5 h was 21.2%. With `CC(c1nc(-c2cccnc2)no1)N(C)CCCOc1ccccc1` (centres undefined), the cytotoxicity at 70.5 h is -3.8%. Then `COc1ccc(Br)cc1S(=O)(=O)N(C)Cc1ccc(N(C)C)cc1`, with -3.08%.

Consider `Cc1cc(NC(=O)C2CCN(c3ncccc3C#N)CC2)no1`, for which the cytotoxicity at 70.5 h came to 3.46%. On to `CCc1ccc(N2CCC(NS(=O)(=O)N(CC)CC)CC2)cc1`, for which the cytotoxicity at 70.5 h is -5.14%. For the compound `CN1CCOC(CNC(=O)CCCc2ccccc2)C1` (centres undefined), the cytotoxicity at 70.5 h is -4.54%. For the compound `CCOC(=O)N(C)CC(=O)NCCc1coc(-c2ccc(C)cc2)n1`, the cytotoxicity at 70.5 h was -8.2%. Under `CCc1nnc(NC(=O)NCCN(C)C(=O)OC(C)(C)C)s1` stands -9.9%. As to `CN(Cc1ccccc1CNC(=O)C1CNC(=O)N1)C1CCCCC1` (centres undefined), the cytotoxicity at 70.5 h was -4.23%.

In the case of `CCOc1ccccc1CN(C)C(C)c1nc(-c2cccnc2)no1` (centres undefined), the cytotoxicity at 70.5 h was -3.75%. As to `O=C(COC1CCCC1)NCc1ccc(O)c(F)c1`, the cytotoxicity at 70.5 h is -3.82%.

Regarding `CC1CCN(c2ccc(C(=O)N3CCCC3c3ccc[nH]3)cn2)CC1` (centres undefined), the cytotoxicity at 70.5 h amounted to 5.1%. `CN1CCN(CCOc2ccc(NC(=O)c3ccc[nH]3)cc2)CC1`: the cytotoxicity at 70.5 h is -2.18%.

Turning to `CCN(C(=O)Cn1cc(NC(=O)C(C)(C)C)cn1)c1ccccc1`, the cytotoxicity at 70.5 h is -0.681%. On to `CC(Cn1ccnc1)NC(=O)NCCN1CCCCCC1=O` (centres undefined), for which the cytotoxicity at 70.5 h is -4.74%. Then `CC(=O)N1CCN(C(=O)NC(C)Cn2ccnc2)CC1` (centres undefined), with -0.59%; and `Cc1nc(CN2CCN(CC(O)CN3CCOCC3)CC2)oc1C` (centres undefined), with 8.53%; and `CC(C)c1nc(CN2CCN(C(=O)OC(C)(C)C)C(C)C2)no1` (centres undefined), with -2.12%. For the compound `CN(C)c1ncccc1N(C)C(=O)Cn1cc(-c2ccccc2)nn1`, the cytotoxicity at 70.5 h was -3.41%.

`CC(c1ccccc1)N(C)CC(=O)NCCC#N` (centres undefined): the cytotoxicity at 70.5 h was -11.2%.

In the case of `COc1cccc(CNC2CCc3ccc(C)cc32)n1` (centres undefined), the cytotoxicity at 70.5 h was -9.15%. Under `CNC(=O)c1cccc(CN2CCC(N(C)Cc3ncc(C)o3)C2)c1` (centres undefined) stands 22.2%.

On to `O=C(NCCNc1ncccn1)NCCSC(F)(F)F`, for which the cytotoxicity at 70.5 h was -10.7%. Under `O=C(Cc1cccs1)NCC(=O)Nc1cn[nH]c1` stands -11.9%; under `CC(Oc1ccc(C(=O)NCCNS(C)(=O)=O)cn1)c1ccccc1` (centres undefined), -8.66%. For the compound `Cc1nc(CN2CCN(c3ccc(SC(C)C)nn3)CC2)cs1`, the cytotoxicity at 70.5 h worked out at 11.1%. Then `CCC(C)(C)NC(=O)c1ccc(NC(=O)NCc2cc(C)on2)cc1`, with -6.36%; and `NS(=O)(=O)CCNC(=O)c1ccc(OCc2ccccc2)nc1`, with 20.5%. As to `O=C(CCc1ccc(C(F)(F)F)cc1)N1CCCS1(=O)=O`, the cytotoxicity at 70.5 h is -4.91%. On to `O=C(CCc1ccc(OC(F)(F)F)cc1)N1CCCS1(=O)=O`, for which the cytotoxicity at 70.5 h was -3.82%. With `Cc1cc(S(=O)(=O)N2CCOCC2C#N)ccc1F` (centres undefined), the cytotoxicity at 70.5 h amounted to 13.3%.

For the compound `CC(Cc1ccc(C(F)(F)F)cc1)C(=O)N1CCCS1(=O)=O` (centres undefined), the cytotoxicity at 70.5 h is -9.41%.

Consider `CN(C)CCn1ccc(NC(=O)NC(C)(C)c2nccs2)n1`, for which the cytotoxicity at 70.5 h is -12.6%. Turning to `CCc1nc(CC)n(CC(=O)N(C)Cc2ccc(F)cc2)n1`, the cytotoxicity at 70.5 h is -4.65%. With `Cc1ccc(S(=O)(=O)N2CCOCC2C#N)cc1Br` (centres undefined), the cytotoxicity at 70.5 h is -6.92%. Consider `CC(NC(=O)NCCCO)c1ccc(-c2ccncc2)cc1` (centres undefined), for which the cytotoxicity at 70.5 h is -9.46%.

As to `OCCN1CCN(Cc2cn(-c3ccccc3)nn2)CC1`, the cytotoxicity at 70.5 h was -11.9%. Then `CC(C)CN(c1cn[nH]c1)S(=O)(=O)c1cccc(C#N)c1`, with -6.94%. Then `C=C(C)CN(c1cn[nH]c1)S(=O)(=O)c1cccc(C#N)c1`, with -5.38%. As for `CC(NCCc1nccn1Cc1ccccc1)c1cccs1` (centres undefined), the cytotoxicity at 70.5 h is 13.3%. Then `COc1cccc(CNC2CCCOc3cc(C)ccc32)n1` (centres undefined), with -9.25%.

With `O=C1CCCN1CCCN1CCCCC1Cn1cncn1` (centres undefined), the cytotoxicity at 70.5 h is -5.51%.

As for `Cc1nc(CN2CCCN(CC(=O)N(C)C(C)(C)C#N)CC2)no1`, the cytotoxicity at 70.5 h was -10.4%. Under `O=C1OCCC1N1CCN(c2cnccn2)CC1` (centres undefined) stands -8.4%; under `CCCc1nnc(SCC(=O)Nc2cc(C(C)(C)C)nn2C)[nH]1`, -13.2%; under `Cc1cc(NC(=O)N2CCN(C)CC2C)n(C(C)(C)C)n1` (centres undefined), -9.8%. Under `N#Cc1cc(Cl)ccc1N1CCOC(C(N)=O)C1` (centres undefined) stands -0.791%; under `CC(C)(C)NC(=O)N1CCN2C(=O)OCC2C1` (centres undefined), -3.52%; under `NC(=O)N1CCCN(C2CCc3ccc(F)cc32)CC1` (centres undefined), -1.61%. Under `CN1CCC(O)(CNCc2ccc(F)c(C(F)(F)F)c2)CC1` stands 22.4%; under `Fc1ccc(NCc2ccncc2)c(OC(F)F)c1`, -5.76%; under `Cn1nc(C(C)(C)C)cc1NC(=O)CSc1nnc[nH]1`, -4.97%. For `O=C(CN1CCOCC1)N1CCN(C2CCc3ccc(F)cc32)CC1` (centres undefined), the cytotoxicity at 70.5 h is -4.68%. With `CCCC(=O)NCc1cccc(C(=O)OC)c1`, the cytotoxicity at 70.5 h is -9.06%. Under `CS(=O)(=O)NCCNC(=O)NC1(c2ccc(F)cc2)CCCC1` stands -9.82%; under `Cn1nc(CC(C)(C)C)cc1NC(=O)c1ccc2[nH]nnc2c1`, 19%.

`COc1cc2nc(NCc3scnc3C)nc(N)c2cc1OC`: the cytotoxicity at 70.5 h was 8.57%. Under `Cc1nonc1NC(=O)C1SCCc2sccc21` (centres undefined) stands 32.5%; under `CCc1cnc(N2CCN(CC(=O)Nc3c(C)n[nH]c3C)CC2)s1`, -3.55%. Then `c1cc(-c2noc(-c3cc(C4CC4)on3)n2)cc(N2CCCCC2)n1`, with -7.87%; and `CN(C)CCN1CCC(NC2CSCCc3ccccc32)CC1` (centres undefined), with -7.29%. Consider `OCCOc1ccc(NCc2cc(F)cc3cccnc23)cn1`, for which the cytotoxicity at 70.5 h was -9.9%. Then `Cc1nc(N2CCC3(CCOC3)C2)c2cc[nH]c2n1` (centres undefined), with 27.9%; and `CCNC(=O)NCc1ccnc(N(C)C)n1`, with -5.28%.

Regarding `CCN(CC(F)(F)F)C(=O)C1CCCN(Cc2nc(C)c(C)o2)C1` (centres undefined), the cytotoxicity at 70.5 h is -1.99%. Then `CCCNC(=O)CN1CCN(c2nc(CC)ns2)CC1`, with -9.67%; and `CNC(=O)CN1CCC(NC2CSCCc3ccccc32)CC1` (centres undefined), with 0.136%. Turning to `OCCOc1ccc(NCc2cccc3[nH]ccc23)cn1`, the cytotoxicity at 70.5 h was -3.37%. For the compound `CCc1ccc(C2COCCN2C(=O)Nc2ccc(C(N)=O)c(Cl)c2)o1` (centres undefined), the cytotoxicity at 70.5 h is -2.09%.

On to `O=C(COC1CCCC1)N1CCCN(c2ncccn2)CC1`, for which the cytotoxicity at 70.5 h was -2.52%. On to `Cc1ccc(C)c(S(=O)(=O)NC(=O)COc2cccc(C#N)c2)c1`, for which the cytotoxicity at 70.5 h was -2.88%. Regarding `Cc1ccc(S(=O)(=O)NC(=O)COc2cccc(C#N)c2)c(C)c1`, the cytotoxicity at 70.5 h is 14.4%. Regarding `CN(CCC(=O)NC1CC1)Cc1ccc(Cl)s1`, the cytotoxicity at 70.5 h was -7.03%. Then `O=c1[nH]c(CN2CCN(CC(F)(F)F)CC2)nc2ccccc12`, with -13.3%; and `O=C(COC1CCCCC1)N1CCN(C(=O)Cc2ccccn2)CC1`, with -6.92%; and `COc1cc(C2(C(=O)NCCn3ccnc3)CCCC2)ccc1C`, with -6.48%. Under `CCc1noc(C(C)N2CCN(Cc3cnc(C)cn3)CC2)n1` (centres undefined) stands 16.3%; under `O=C(NCc1ccccc1CN1CCCCCC1)Nc1nncs1`, -5.79%. On to `Cc1ncsc1CNc1ccn(Cc2ccccc2)n1`, for which the cytotoxicity at 70.5 h worked out at 6.63%. Under `CCOCCNC(=O)Cc1cccc(I)c1` stands 0.854%; under `CN(C)CCNC(=O)Cc1cccc(I)c1`, 18.8%. Then `COc1cc(OC)cc(C2CCN(CC(=O)NCC(F)(F)F)C2)c1` (centres undefined), with -3.94%. Then `NC(=O)CCCNC(=O)Cc1cccc(I)c1`, with -1.69%; and `COCc1cccc(C(=O)N2CCN(C3=NCC(C)(C)S3)CC2)c1`, with -3.27%; and `CC(=O)CC(C)(C)NC(=O)CCN(C)Cc1ccc(Cl)s1`, with -9.29%. Take `OCC1CCCCN1Cc1nc(Cc2ccccc2)no1` (centres undefined): the cytotoxicity at 70.5 h was -3.62%. Under `COCc1nccc(C2CCCN(Cc3ccccc3C#N)C2)n1` (centres undefined) stands -6.99%; under `CN(Cc1cccc(Cl)c1)Cc1nnsc1Cl`, -5.2%; under `Cc1cc(CN2CCN(C(C)c3nc(C(C)C)no3)CC2)no1` (centres undefined), -7.52%.

For the compound `CNC(=O)CN1CCC(c2cc(OC)cc(OC)c2)C1` (centres undefined), the cytotoxicity at 70.5 h is -7.18%. Under `Cc1cccc(OC(C)C(=O)NCC2(N(C)C)CCCC2)c1` (centres undefined) stands -8.19%; under `O=C(CN1CCN(c2ccccc2F)CC1)Nc1ccc(Cl)cn1`, 11.6%. Then `CN(Cc1ccc2c(c1)OCO2)C(=O)c1ccc(=O)n(C)c1`, with -1.05%; and `CS(=O)(=O)NCC1CCCN(c2ccc(C(F)(F)F)cn2)C1` (centres undefined), with -7.49%. Under `CN(Cc1ccc(Br)o1)C(=O)Nc1cccnc1` stands -5.06%; under `N#Cc1ccccc1N1CCCN(CC(=O)Nc2ccccc2Cl)CC1`, -6.48%. For `Cn1ccnc1COc1ccc(NC(=O)CCC2CCCO2)cc1` (centres undefined), the cytotoxicity at 70.5 h is -5.92%.

In the case of `COc1c(CNCc2cccc(CN3CCOCC3)c2)c(C)nn1C`, the cytotoxicity at 70.5 h was -10.7%. `O=C(CN1CSCC1=O)NCC1CCN(c2ccccc2)C1` (centres undefined): the cytotoxicity at 70.5 h is -8.38%.

As to `COc1cc(NC(=O)NC2CC2)ccc1N1CCOC1=O`, the cytotoxicity at 70.5 h was -8.49%.

Regarding `Cc1cc(C)c(CNCC(O)c2ccc(F)c(F)c2)c(C)c1` (centres undefined), the cytotoxicity at 70.5 h was -11.4%. Then `Cc1n[nH]c(C)c1CNCC(O)c1cccc(Cl)c1` (centres undefined), with -13.1%. For the compound `CC(C)c1nn(C)c(N(C)C)c1CNCc1cscn1`, the cytotoxicity at 70.5 h is -5.21%. For the compound `Cc1nn(C)c(N(C)C)c1CNCc1nnc2n1CCCCC2`, the cytotoxicity at 70.5 h is -6.41%.
